The values below come from patent US9346769B2, “Tetrazolones as inhibitors of fatty acid synthase” (Infinity Pharmaceuticals, Inc., priority 2010, dated 2016).

The target in the experiment is T1, human FASN (Homo sapiens, UniProt P49327).
T1 construct: was purified from SKBR3 cells using procedures modified from those in Jayakumar et al; endogenous in cells; host or cells: SKBR3 human breast cancer cells (ATCC); Endogenous enzyme purified by ammonium sulfate precipitation and a mono Q column
T1 sequence (P49327 whole entry): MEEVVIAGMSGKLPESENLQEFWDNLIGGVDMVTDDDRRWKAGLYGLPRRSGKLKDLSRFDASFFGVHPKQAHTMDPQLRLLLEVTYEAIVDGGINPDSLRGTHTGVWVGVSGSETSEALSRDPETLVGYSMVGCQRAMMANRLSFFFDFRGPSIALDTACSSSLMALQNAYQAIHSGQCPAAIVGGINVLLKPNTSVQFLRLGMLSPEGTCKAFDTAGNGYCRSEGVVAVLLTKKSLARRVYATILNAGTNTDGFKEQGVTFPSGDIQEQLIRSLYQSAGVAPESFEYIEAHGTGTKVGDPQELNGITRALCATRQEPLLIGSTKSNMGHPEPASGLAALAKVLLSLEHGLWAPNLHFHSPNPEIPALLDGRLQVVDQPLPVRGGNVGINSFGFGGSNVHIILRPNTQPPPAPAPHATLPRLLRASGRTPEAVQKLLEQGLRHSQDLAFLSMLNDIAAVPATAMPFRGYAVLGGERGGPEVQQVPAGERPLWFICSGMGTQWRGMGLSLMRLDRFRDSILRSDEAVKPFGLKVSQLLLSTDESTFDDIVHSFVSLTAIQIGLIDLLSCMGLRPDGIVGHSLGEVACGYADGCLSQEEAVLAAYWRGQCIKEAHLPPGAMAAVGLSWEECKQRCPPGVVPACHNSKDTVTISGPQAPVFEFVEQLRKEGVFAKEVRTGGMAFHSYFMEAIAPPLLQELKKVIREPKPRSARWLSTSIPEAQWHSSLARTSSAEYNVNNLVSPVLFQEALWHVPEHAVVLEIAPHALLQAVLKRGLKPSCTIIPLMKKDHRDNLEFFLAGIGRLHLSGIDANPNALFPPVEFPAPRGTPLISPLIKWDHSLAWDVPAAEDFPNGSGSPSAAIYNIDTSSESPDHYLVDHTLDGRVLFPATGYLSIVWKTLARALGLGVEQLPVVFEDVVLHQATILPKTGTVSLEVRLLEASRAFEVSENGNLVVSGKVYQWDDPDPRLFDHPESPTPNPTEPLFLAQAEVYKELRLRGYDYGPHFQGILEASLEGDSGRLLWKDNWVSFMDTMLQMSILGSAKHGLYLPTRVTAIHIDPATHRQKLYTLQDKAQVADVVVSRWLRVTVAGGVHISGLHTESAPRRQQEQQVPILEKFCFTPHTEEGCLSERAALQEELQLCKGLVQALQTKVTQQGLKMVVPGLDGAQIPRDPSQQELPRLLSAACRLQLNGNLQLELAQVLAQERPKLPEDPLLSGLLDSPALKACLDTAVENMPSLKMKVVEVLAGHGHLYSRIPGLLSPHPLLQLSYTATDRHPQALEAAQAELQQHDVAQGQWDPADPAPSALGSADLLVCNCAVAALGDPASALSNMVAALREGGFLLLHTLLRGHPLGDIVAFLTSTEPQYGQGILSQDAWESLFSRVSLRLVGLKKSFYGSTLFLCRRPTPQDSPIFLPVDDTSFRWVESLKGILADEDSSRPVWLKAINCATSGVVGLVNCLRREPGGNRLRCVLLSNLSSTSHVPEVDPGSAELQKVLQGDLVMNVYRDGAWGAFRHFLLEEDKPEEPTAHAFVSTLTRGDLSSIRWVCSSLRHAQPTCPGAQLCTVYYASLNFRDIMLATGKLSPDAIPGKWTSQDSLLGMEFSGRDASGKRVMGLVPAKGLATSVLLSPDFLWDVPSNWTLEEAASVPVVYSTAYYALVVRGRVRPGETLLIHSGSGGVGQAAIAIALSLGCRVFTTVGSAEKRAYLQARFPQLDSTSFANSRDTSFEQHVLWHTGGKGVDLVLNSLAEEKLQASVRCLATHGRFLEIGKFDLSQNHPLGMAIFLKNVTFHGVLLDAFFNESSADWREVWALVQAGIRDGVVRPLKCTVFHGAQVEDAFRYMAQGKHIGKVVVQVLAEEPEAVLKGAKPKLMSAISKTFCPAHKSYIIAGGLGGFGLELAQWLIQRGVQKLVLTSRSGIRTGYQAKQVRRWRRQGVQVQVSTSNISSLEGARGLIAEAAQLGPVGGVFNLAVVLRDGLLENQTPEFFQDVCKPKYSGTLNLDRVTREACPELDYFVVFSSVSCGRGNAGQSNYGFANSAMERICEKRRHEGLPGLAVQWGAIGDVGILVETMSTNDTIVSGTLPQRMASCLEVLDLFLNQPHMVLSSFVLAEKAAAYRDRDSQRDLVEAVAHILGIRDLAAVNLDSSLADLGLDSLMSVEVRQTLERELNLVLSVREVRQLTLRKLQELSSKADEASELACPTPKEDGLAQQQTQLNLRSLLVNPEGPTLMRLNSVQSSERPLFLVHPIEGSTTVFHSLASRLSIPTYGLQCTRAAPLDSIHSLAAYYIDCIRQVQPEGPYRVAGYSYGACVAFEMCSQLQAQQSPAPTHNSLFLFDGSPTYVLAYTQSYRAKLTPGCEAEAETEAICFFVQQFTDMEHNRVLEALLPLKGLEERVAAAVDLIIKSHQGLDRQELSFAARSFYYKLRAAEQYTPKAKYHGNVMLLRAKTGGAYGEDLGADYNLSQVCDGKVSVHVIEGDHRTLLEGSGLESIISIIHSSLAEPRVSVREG
In words: FASN Scintillation Proximity Flashplate Assay. The format is biochemical. Conditions: human FASN purified from SKBR3 cells; unstarred symbols. On the procedure:
Human FASN protein (SEQ ID NO. 1) was purified from SKBR3 cells using procedures modified from those in Jayakumar et al. PNAS 1995, 92:8695-8699. SKBR3 cells were obtained from ATCC and grown in DMEM high glucose medium supplemented with 10% FBS, 1 μg/mL bovine pancreas insulin, 100 U/mL penicillin and 100 µg/mL streptomycin. The confluent cells were trypsinized and washed three times with PBS buffer before frozen in liquid N2 and stored at −80° C. Frozen cells were thawed on ice and resuspended in lysis buffer (25 mM Tris-HCl, pH 7.0, 15 mM NaCl, 1 mM EDTA, and 1 mM DTT) with protease inhibitors. The cells were lysed by sonication, and the cell debris was removed by centrifugation at 20,000 rpm for 30 min. To the supernatant, neutralized saturated ammonium sulfate solution was added to a final concentration of 35%. The solution was left on ice for 1 hr, and the precipitated proteins were harvested by centrifugation at 20,000 rpm for 30 min. The proteins were redissolved in lysis buffer without NaCl and loaded on a mono Q column. Bound proteins were eluted with a linear gradient of NaCl in lysis buffer. Each fraction was analyzed by SDS-PAGE and FASN NADPH consumption assay. The fractions containing FASN were pooled and concentrated to 2-3 mg/mL. Glycerol was added to 20%, and the protein was frozen in liquid N2 and stored at −80° C.
Acetyl-coenzyme A, malonyl-coenzyme A, NADPH, bovine gamma globulin, and ORLISTAT were purchased from Sigma (St. Louis, Mo.). Tris(2-carboxyethyl) phosphine hydrochloride (TCEP) was purchased from Pierce Biotechnologies (Rockford, Ill.). [^3H]-acetyl-coenzyme A was purchased from Moravek Biochemicals (Brea, CA). FlashPlate™ PLUS phospholipid 96-well scintillant coated microplates were purchased from Perkin Elmer Life and Analytical Sciences (Shelton, CT). The method of the FASN Scintillation Proximity FlashPlate assay is similar to that described in Weiss and Glickman Assay Drug Dev Technol 2003, 1:161-6. In a 96-well polypropylene microplate, a dilution series (typical concentrations 60 nM-1.0 mM) of test compounds were prepared in DMSO followed by a 20-fold dilution into FASN assay buffer (50 mM potassium phosphate, pH 7.0, 1.0 mM EDTA, 0.01% NP-40), of which 5.0 μL each was transferred to a FlashPlate® PLUS 96-well plate and mixed with 35 μL FASN assay buffer plus 0.5 mg/mL bovine gamma globulin and 1 mM TCEP. FASN protein (10 μL, 10 nM) was added per well, and the microplate was incubated at 37° C. for 30 min. 10 μL of 20 mM NADPH was added, and the reaction was initiated by addition of […] substrate mixture to final concentrations of 1 nM FASN, 100 μM acetyl-coenzyme A, 6 μCi [^3H]-acetyl-coenzyme A, 300 μM malonyl-coenzyme A, 2 mM NADPH, 0.5 mg/mL bovine gamma globulin, and 1 mM TCEP in a volume of 100 μL per well. Assay plates were incubated for 2 hr at 37° C. and the reaction was stopped with 2 μL of 2.5 mM stock solution of ORLISTAT in DMSO to ˜50 μM. The plates were read in a Wallac 1450 Microbeta Plus liquid scintillation counter (Perkin Elmer, Waltham, Mass.), and counts per minute (CPM) were collected over 2 min. Each inhibitor well CPM was compared to the maximum FASN enzyme activity (Max) CPM and the background (Min) CPM, as measured by omission of FASN enzyme in the background well. % Inhibition values were calculated, and curves were fitted by a four-parameter logistic function to yield IC50 values:
Compounds were assayed as inhibitors of human FASN using the above-described FASN Scintillation Proximity Flashplate Assay (IC50; nM) or FASN NADPH Consumption Assay (*) (IC50; nM). The corresponding activity of the isolated compound is also provided along with the measured mass (ES^+).
Broadly, the IC50 is the concentration that inhibits the measured activity by half. A low value points to higher potency. `CCN(C(=O)n1nnn(-c2ccccc2OC)c1=O)c1ccc(OC)cc1` came in with an IC50 of 100 to 200 nM.

`COc1ccccc1-n1nnn(C(=O)N(c2ccc(Br)cc2)c2ccc(C(=O)O)cc2)c1=O` registered an IC50 of less than 15 nM.

Take `CCCCOc1ccc(C(=O)O)cc1N(CC)C(=O)n1nnn(-c2ccccc2OC)c1=O`: the IC50 was less than 15 nM.

For the molecule `COc1ccc(N(C(=O)n2nnn(-c3c(F)cccc3F)c2=O)C(C)C)cc1C(=O)O`, the IC50 was less than 15 nM.

As for `CCN(C(=O)n1nnn(-c2c(F)cccc2OC)c1=O)c1ccccc1`, the IC50 is less than 15 nM.

Regarding `CCC(C)N(C(=O)n1nnn(-c2c(F)cccc2OC)c1=O)c1cccc(C(=O)OCc2ccccc2)c1` (stereo not drawn), the IC50 was less than 15 nM.

Molecule `COc1ccc(C(=O)O)cc1N(C(=O)n1nnn(-c2c(F)cccc2OC)c1=O)C1CCCCC1` displayed an IC50 of less than 15 nM.

Molecule `COCCOc1ccc(N(C(=O)n2nnn(-c3c(F)cccc3OCCOC)c2=O)C2CCCCC2)cc1C(=O)O` displayed an IC50 of 15 to 100 nM.

The molecule `COCCOc1cccc(F)c1-n1nnn(C(=O)N(c2ccc(OC)c(C(=O)O)c2)C2CCCCC2)c1=O` displayed an IC50 of less than 15 nM.

As for `COc1ccc(N(C(=O)n2nnn(-c3c(F)cccc3OCC(OC)OC)c2=O)C2CCCCC2)cc1C(=O)O`, the IC50 was less than 15 nM.

`COc1ccc(N(C(=O)n2nnn(-c3c(F)cccc3OC(C)C)c2=O)C2CCCCC2)cc1C(=O)O`: the IC50 is less than 15 nM.

As to `COc1ccc(C(=O)O)cc1N(C(=O)n1nnn(-c2c(F)cccc2OC(C)C)c1=O)C1CCCCC1`, the IC50 lay in the range of 15 to 100 nM.

As for `COc1ccc(C(=O)OCc2ccccc2)cc1N(C(=O)n1nnn(-c2c(F)cccc2OC(C)C)c1=O)C1CCCCC1`, the IC50 lay in the range of 15 to 100 nM.

`COc1ccc(N(C(=O)n2nnn(-c3c(F)cccc3C(=O)O)c2=O)C(C)C)cc1C(=O)OCc1ccccc1` showed an IC50 of 15 to 100 nM.

Take `CCN(C(=O)n1nnn(-c2c(F)cccc2C(=O)N2CCOCC2)c1=O)c1ccccc1Oc1ccccc1`: the IC50 lay in the range of 200 to 5000 nM.

`COc1ccc(N(C(=O)n2nnn(-c3c(F)cccc3C(=O)N3CCOCC3)c2=O)C(C)C)cc1C(=O)OCc1ccccc1`: the IC50 was less than 15 nM.

With `COc1ccc(N(C(=O)n2nnn(-c3c(F)cccc3C(=O)N3CCOCC3)c2=O)C(C)C)cc1C(=O)O`, the IC50 fell in the range of 200 to 5000 nM.

`COc1ccc(N(C(=O)n2nnn(-c3c(F)cccc3C(=O)N3CCCCC3)c2=O)C(C)C)cc1C(=O)OCc1ccccc1`: the 50% inhibitory concentration (IC50) is less than 15 nM.

As to `COc1ccc(N(C(=O)n2nnn(-c3c(F)cccc3C(=O)N3CCCCC3)c2=O)C(C)C)cc1C(=O)O`, the IC50 lay within 15 to 100 nM.

Consider `CCN(C(=O)n1nnn(-c2c(F)cccc2C(=O)N2CCCCC2)c1=O)c1ccccc1Oc1ccccc1`, for which the IC50 lay within 100 to 200 nM.

`CCN(C(=O)n1nnn(-c2c(F)cccc2C(=O)NCc2ccccc2)c1=O)c1ccccc1`: the IC50 was less than 15 nM.

`CCN(C(=O)n1nnn(-c2c(F)cccc2C(=O)NCc2ccccc2)c1=O)c1ccccc1Oc1ccccc1` registered an IC50 of 15 to 100 nM.

Molecule `COc1ccc(N(C(=O)n2nnn(-c3c(F)cccc3C(=O)N(C)Cc3ccccc3)c2=O)C(C)C)cc1C(=O)O` displayed an IC50 of less than 15 nM.

For `COc1ccc(N(C(=O)n2nnn(-c3c(F)cccc3C(=O)N(C)Cc3ccccc3)c2=O)C(C)C)cc1C(=O)OCc1ccccc1`, the IC50 is less than 15 nM.

The molecule `COc1ccc(N(C(=O)n2nnn(-c3c(F)cccc3C(=O)N(C)c3ccccc3)c2=O)C(C)C)cc1C(=O)O` displayed an IC50 of 15 to 100 nM.

`COc1ccc(N(C(=O)n2nnn(-c3c(F)cccc3C(=O)N(C)C)c2=O)C(C)C)cc1C(=O)O` came in with an IC50 of 200 to 5000 nM.

In turn, `COc1ccc(N(C(=O)n2nnn(-c3c(F)cccc3C(=O)N(C)C)c2=O)C(C)C)cc1C(=O)OCc1ccccc1` displayed an IC50 of less than 15 nM.

`COc1ccc(N(C(=O)n2nnn(-c3c(F)cccc3N3CCOCC3)c2=O)C2CCCCC2)cc1C(=O)O` yielded an IC50 of 15 to 100 nM.

The molecule `COc1ccc(COC(=O)c2cc(N(C(=O)n3nnn(-c4cccc5nsnc45)c3=O)C3CCCCC3)ccc2OC)cc1` registered an IC50 of less than 15 nM.

The molecule `COc1ccc(N(C(=O)n2nnn(-c3cccc4nsnc34)c2=O)C2CCCCC2)cc1C(=O)O` had an IC50 of 15 to 100 nM.

With `COc1ccc(N(C(=O)n2nnn(-c3cccc(N)c3N)c2=O)C2CCCCC2)cc1C(=O)O`, the IC50 fell in the range of 15 to 100 nM.

In turn, `COc1ccc(N(C(=O)n2nnn(-c3cccc4nc[nH]c34)c2=O)C2CCCCC2)cc1C(=O)O` came in with an IC50 of 100 to 200 nM.

`O=C(O)c1ccc(N(C(=O)n2nnn(-c3c(F)cccc3F)c2=O)C2CCCCC2)cn1` came in with an IC50 of less than 15 nM.

Turning to `CN(Cc1cccc2ccccc12)C(=O)n1nnn(-c2c(F)cccc2F)c1=O`, the IC50 is 100 to 200 nM.

In turn, `CC(C)N(C(=O)n1nnn(-c2c(F)cccc2F)c1=O)c1cc(C(=O)O)ccc1Oc1ccccc1` registered an IC50 of less than 15 nM.

Turning to `COc1cccc(F)c1-n1nnn(C(=O)N(c2cc(C(=O)O)ccc2Oc2ccccc2)C(C)C)c1=O`, the IC50 is less than 15 nM.

For the molecule `O=C(O)c1ccc(N(C(=O)n2nnn(-c3c(F)cccc3F)c2=O)C2CCCCC2)c(Oc2ccccc2)c1`, the IC50 is less than 15 nM.

The molecule `O=C(O)c1ccc(N(C(=O)n2nnn(-c3c(F)cccc3F)c2=O)C2CCCC2)c(Oc2ccccc2)c1` showed an IC50 of less than 15 nM.

As for `COc1cc(Oc2ccccc2)c(N(C(=O)n2nnn(-c3c(F)cccc3F)c2=O)C2CCCCC2)cc1C(=O)O`, the IC50 was less than 15 nM.

On to `COc1cc(Oc2ccccc2)c(N(C(=O)n2nnn(-c3c(F)cccc3F)c2=O)C2CCCC2)cc1C(=O)O`, for which the half-inhibitory concentration (IC50) is less than 15 nM.

Consider `O=C(O)c1ccc(F)c(N(C(=O)n2nnn(-c3c(F)cccc3F)c2=O)C2CCCC2)c1`, for which the IC50 is less than 15 nM.

Molecule `O=C(N1Cc2cccc3cccc(c23)C1)n1nnn(-c2c(F)cccc2F)c1=O` had an IC50 of 15 to 100 nM.

`O=C(N1CCCc2cccc(F)c21)n1nnn(-c2c(F)cccc2F)c1=O`: the IC50 was less than 15 nM.

`CN(C)c1ccc2c(c1)OC(=O)CC2CC(=O)Nc1cccc2c1CCCN2C(=O)n1nnn(-c2c(F)cccc2F)c1=O` (stereo not drawn): the IC50 lay in the range of 15 to 100 nM.

For the molecule `CCN(C(=O)n1nnn(-c2ccccc2Cl)c1=O)C1CCCC1`, the IC50 is 200 to 5000 nM.

Molecule `CCCN(C(=O)n1nnn(-c2ccccc2Cl)c1=O)C1CCCC1` registered an IC50 of 200 to 5000 nM.

In turn, `CN(C)N(C(=O)n1nnn(-c2ccccc2Cl)c1=O)C1CCCC1` displayed an IC50 of 200 to 5000 nM.

Molecule `COc1ccc(COC(=O)[C@H]2CC[C@H](N(C(=O)n3nnn(-c4c(F)cccc4OC)c3=O)c3ccccc3)CC2)cc1` gave an IC50 of 15 to 100 nM.

For the molecule `COc1cccc(F)c1-n1nnn(C(=O)N(c2ccccc2)[C@H]2CC[C@H](C(=O)O)CC2)c1=O`, the IC50 lay within 100 to 200 nM.

Regarding `CN(C)N(C(=O)n1nnn(-c2ccccc2Cl)c1=O)C1=CCCC1`, the IC50 was in the range of 15 to 100 nM.

Consider `CN(C)N(C(=O)n1nnn(-c2ccccc2Br)c1=O)C1=CCCC1`, for which the half-maximal inhibitory concentration (IC50) fell in the range of 15 to 100 nM.

On to `CN(C)N(C(=O)n1nnn(-c2ccccc2F)c1=O)C1=CCCC1`, for which the IC50 was 100 to 200 nM.

Molecule `CN(C)N(C(=O)n1nnn(-c2c(Cl)cccc2Cl)c1=O)C1=CCCC1` displayed a 50% inhibitory concentration (IC50) of 15 to 100 nM.

Molecule `CN(C)N(C(=O)n1nnn(-c2c(F)cccc2F)c1=O)C1=CCCC1` gave an IC50 of 15 to 100 nM.

`CN(C)N(C(=O)n1nnn(-c2ccccc2Cl)c1=O)C1=CCCCCC1`: the half-maximal inhibitory concentration (IC50) fell in the range of 100 to 200 nM.

Molecule `CN(C)N(C(=O)n1nnn(-c2ccccc2Cl)c1=O)/C1=C/CCCCCC1` returned a 50% inhibitory concentration (IC50) of 200 to 5000 nM.

Consider `CCCN(CC1CC1)C(=O)n1nnn(-c2ccccc2Cl)c1=O`, for which the IC50 fell in the range of 200 to 5000 nM.
